PubChem BioAssay AID248 (DTP/NCI, 2004)
Several values for one entry are separate records, joined by “and”; a condition that tells them apart may be missing. Equal entries are not always repeated. Toxic doses and inconclusive results are not listed. Cut-off read from the data, not from the text of the source: active = T/C of 150% or more; inactive = T/C below 125%.

System: L1210 leukemia ip in BDF1 mice, survival T/C
Assay: NCI In Vivo Anticancer Drug Screen. Data for tumor model L1210 Leukemia (intraperitoneal) in B6D2F1 (BDF1) mice
Settings: endpoint: mean survival time, higher = longer survival
Outline: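 Tumor was transplanted into mice, which were then dosed with test compound or vehicle alone. Survival was recorded for each group, and the treated figure was expressed relative to the control figure.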

[1] = dose: 100.0 mg/kg/injection, schedule: Q01DX009 (ip), vehicle: saline with Tween-80
[2] = dose: 100.0 mg/kg/injection, schedule: Q04DX003 (ip), vehicle: saline with Tween-80
[3] = dose: 50.0 mg/kg/injection, schedule: Q01DX001 (ip), vehicle: saline
[4] = dose: 100.0 mg/kg/injection, schedule: Q01DX001 (ip), vehicle: saline
[5] = dose: 200.0 mg/kg/injection, schedule: Q01DX001 (ip), vehicle: saline
[6] = dose: 400.0 mg/kg/injection, schedule: Q01DX001 (ip), vehicle: saline
[7] = dose: 200.0 mg/kg/injection, schedule: Q01DX001 (ip), vehicle: carboxymethylcellulose (CMC)

Measured: T/C

Nc1ccc(Cl)cc1-c1ccccc1
inactive: dose: 55.0 mg/kg/injection, schedule: Q01DX Z (ip), vehicle: saline 105 % of control | dose: 125.0 mg/kg/injection, schedule: Q01DX Z (ip), vehicle: saline 104 % of control

CCOC(=O)/C=C(\C)C(C)=O
inactive: [1] 92 % of control | [2] 98 % of control | dose: 200.0 mg/kg/injection, schedule: Q01DX009 (ip), vehicle: saline with Tween-80 96 % of control | dose: 200.0 mg/kg/injection, schedule: Q04DX003 (ip), vehicle: saline with Tween-80 103 % of control | dose: 400.0 mg/kg/injection, schedule: Q01DX009 (ip), vehicle: saline with Tween-80 92 % of control | dose: 400.0 mg/kg/injection, schedule: Q04DX003 (ip), vehicle: saline with Tween-80 104 % of control

O=C(NC(NC(=O)c1ccc(Cl)cc1)C(Cl)(Cl)Cl)c1ccc(Cl)cc1
inactive: dose: 25.0 mg/kg/injection, schedule: Q01DX009 (ip), vehicle: saline with Tween-80 100 % of control | dose: 50.0 mg/kg/injection, schedule: Q01DX009 (ip), vehicle: saline with Tween-80 93 % of control | [1] 92 % of control | [2] 92 % of control

Cc1c2ccc(=O)cc-2oc2cc(O)ccc12
inactive: dose: 100.0 mg/kg/injection, schedule: Q04DX003 (ip), vehicle: Klucel (hydroxypropylcellulose) (HPC) 92 % of control | dose: 200.0 mg/kg/injection, schedule: Q04DX003 (ip), vehicle: Klucel (hydroxypropylcellulose) (HPC) 94 % of control | dose: 400.0 mg/kg/injection, schedule: Q04DX003 (ip), vehicle: Klucel (hydroxypropylcellulose) (HPC) 87 % of control

CCOC(=O)C1CC2(SCCS2)C(C(=O)O)CC12SCCS2 (stereo not drawn)
inactive: dose: 100.0 mg/kg/injection, schedule: Q04DX003 (ip), vehicle: other 103 % of control | dose: 200.0 mg/kg/injection, schedule: Q04DX003 (ip), vehicle: other 92 % of control | dose: 400.0 mg/kg/injection, schedule: Q04DX003 (ip), vehicle: other 97 % of control

Cc1ccc(S(=O)(=O)OCCN(CCOS(=O)(=O)c2ccc(C)cc2)c2ccc(F)cc2)cc1
inactive: dose: 1.9 mg/kg/injection, schedule: Q01DX009 (ip), vehicle: saline 122 % of control | dose: 4.4 mg/kg/injection, schedule: Q01DX009 (ip), vehicle: saline 122 % of control | dose: 6.5 mg/kg/injection, schedule: Q01DX009 (ip), vehicle: saline 102 % of control | dose: 9.6 mg/kg/injection, schedule: Q01DX009 (ip), vehicle: saline 124 % of control | dose: 10.0 mg/kg/injection, schedule: Q01DX009 (ip), vehicle: saline 118 % of control | dose: 16.0 mg/kg/injection, schedule: Q01DX009 (ip), vehicle: saline 113 % of control | dose: 23.0 mg/kg/injection, schedule: Q01DX009 (ip), vehicle: saline 113 % of control | dose: 35.0 mg/kg/injection, schedule: Q01DX009 (ip), vehicle: saline 121 % of control | [3] 97 % of control | dose: 50.0 mg/kg/injection, schedule: Q01DX009 (ip), vehicle: saline 95 % of control | dose: 53.0 mg/kg/injection, schedule: Q01DX009 (ip), vehicle: other 110 % of control | dose: 75.0 mg/kg/injection, schedule: Q01DX009 (ip), vehicle: saline 88 % of control | dose: 79.0 mg/kg/injection, schedule: Q01DX009 (ip), vehicle: other 98 % of control and 119 % of control | [4] 100 % of control | dose: 118.0 mg/kg/injection, schedule: Q01DX009 (ip), vehicle: other 104 % of control | dose: 150.0 mg/kg/injection, schedule: Q01DX009 (ip), vehicle: saline 123 % of control | [5] 105 % of control | [6] 115 % of control
active: dose: 22.0 mg/kg/injection, schedule: Q01DX009 (ip), vehicle: saline 166 % of control | dose: 24.0 mg/kg/injection, schedule: Q01DX009 (ip), vehicle: saline 152 % of control

O=[N+]([O-])c1ccc(NC(c2ccccc2)c2ccc3cccnc3c2O)cc1 (stereo not drawn)
inactive: [4] 89 % of control | [5] 95 % of control | [6] 91 % of control

CN=C(NC)c1ccc(NC(=O)/C=C\c2ccc(/C=C/C(=O)Nc3ccc(C(=NC)NC)cc3)cc2)cc1
inactive: dose: 7.5 mg/kg/injection, schedule: Q01DX Z (oral), vehicle: saline 95 % of control | dose: 15.0 mg/kg/injection, schedule: Q01DX Z (oral), vehicle: saline 91 % of control | dose: 30.0 mg/kg/injection, schedule: Q01DX Z (oral), vehicle: saline 95 % of control | dose: 60.0 mg/kg/injection, schedule: Q01DX Z (oral), vehicle: saline 103 % of control

N#Cc1ccccc1CC(=O)c1ccccc1
inactive: [3] 101 % of control | [4] 97 % of control | [5] 93 % of control | [6] 100 % of control

CNCCNC
inactive: [4] 94 % of control | dose: 100.0 mg/kg/injection, schedule: Q04DX002 (ip), vehicle: saline 103 % of control | [5] 102 % of control | dose: 200.0 mg/kg/injection, schedule: Q04DX002 (ip), vehicle: saline 103 % of control | [6] 96 % of control | dose: 400.0 mg/kg/injection, schedule: Q04DX002 (ip), vehicle: saline 90 % of control

CCOC(=O)C1=NN(c2ccccc2)C(=O)C1N=Nc1c(Br)cc(S(N)(=O)=O)cc1Br (stereo not drawn)
inactive: [4] 96 % of control | [5] 101 % of control | [6] 98 % of control

O=c1[nH]cc(Cl)cc1Cl
inactive: dose: 100.0 mg/kg/injection, schedule: Q01DX009 (ip), vehicle: Klucel (hydroxypropylcellulose) (HPC) 94 % of control | dose: 200.0 mg/kg/injection, schedule: Q01DX009 (ip), vehicle: Klucel (hydroxypropylcellulose) (HPC) 94 % of control | dose: 400.0 mg/kg/injection, schedule: Q01DX009 (ip), vehicle: Klucel (hydroxypropylcellulose) (HPC) 108 % of control

CCN(CC)CCCC(C)Nc1ccnc(C)c1 (stereo not drawn)
inactive: dose: 10.0 mg/kg/injection, schedule: Q04DX003 (ip), vehicle: other 100 % of control | dose: 20.0 mg/kg/injection, schedule: Q04DX003 (ip), vehicle: other 95 % of control | dose: 40.0 mg/kg/injection, schedule: Q04DX003 (ip), vehicle: other 94 % of control

CC1(C)C2CCC1(C)C(NC(=O)N(CCCl)N=O)C2 (stereo not drawn)
inactive: dose: 4.0 mg/kg/injection, schedule: Q01DX001 (ip), vehicle: carboxymethylcellulose (CMC) 98 % of control | dose: 9.0 mg/kg/injection, schedule: Q01DX001 (ip), vehicle: carboxymethylcellulose (CMC) 96 % of control | dose: 18.0 mg/kg/injection, schedule: Q01DX001 (ip), vehicle: carboxymethylcellulose (CMC) 102 % of control | dose: 37.0 mg/kg/injection, schedule: Q01DX001 (ip), vehicle: carboxymethylcellulose (CMC) 112 % of control | dose: 75.0 mg/kg/injection, schedule: Q01DX001 (ip), vehicle: carboxymethylcellulose (CMC) 104 % of control | dose: 150.0 mg/kg/injection, schedule: Q01DX001 (ip), vehicle: carboxymethylcellulose (CMC) 106 % of control | [7] 115 % of control | dose: 500.0 mg/kg/injection, schedule: Q01DX001 (ip), vehicle: carboxymethylcellulose (CMC) 115 % of control | dose: 1000.0 mg/kg/injection, schedule: Q01DX001 (ip), vehicle: carboxymethylcellulose (CMC) 121 % of control

C[N+](C)(CC(=O)Nc1ccc(Cl)c(C(F)(F)F)c1)Cc1ccc(Cl)cc1
inactive: [2] 100 % of control

CCOC(=O)C1OC1(C)C (stereo not drawn)
inactive: dose: 100.0 mg/kg/injection, schedule: Q04DX002 (ip), vehicle: Klucel (hydroxypropylcellulose) (HPC) 88 % of control | dose: 200.0 mg/kg/injection, schedule: Q04DX002 (ip), vehicle: Klucel (hydroxypropylcellulose) (HPC) 103 % of control | dose: 400.0 mg/kg/injection, schedule: Q04DX002 (ip), vehicle: Klucel (hydroxypropylcellulose) (HPC) 95 % of control

Nc1nc(N)c(N=Nc2ccccc2)c(=O)[nH]1
inactive: dose: 50.0 mg/kg/injection, schedule: Q01DX001 (ip), vehicle: carboxymethylcellulose (CMC) 88 % of control | dose: 50.0 mg/kg/injection, schedule: Q04DX003 (ip), vehicle: carboxymethylcellulose (CMC) 94 % of control | dose: 100.0 mg/kg/injection, schedule: Q01DX001 (ip), vehicle: carboxymethylcellulose (CMC) 90 % of control | dose: 100.0 mg/kg/injection, schedule: Q04DX003 (ip), vehicle: carboxymethylcellulose (CMC) 93 % of control | [7] 93 % of control | dose: 200.0 mg/kg/injection, schedule: Q04DX003 (ip), vehicle: carboxymethylcellulose (CMC) 94 % of control
